The experiment concerns the target T1, human Fatty Acid Synthase (Homo sapiens, UniProt P49327).
T1 construct: made in house
The experiment can be described thus: Human FAS enzyme assay (decrease in NADPH fluorescence). Type of experiment: biochemical. The settings on record: % inhibition at a concentration of 100 micromolar. In short, it runs like this: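 In-house human FAS (0.4 μg) was preincubated 15 min at RT with compound and NADPH (added at 166.6 μM) in 0.1 M Tris pH 7.5, 1 mM glutathione, 0.05% BSA. Malonyl-/acetyl-CoA (500/150 μM in substrate mix) was then added for 60 min. Readout was NADPH fluorescence loss (ex 340/em 460) over a time-zero read, with IC50 from a sigmoid fit.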
T1 sequence (P49327 whole entry): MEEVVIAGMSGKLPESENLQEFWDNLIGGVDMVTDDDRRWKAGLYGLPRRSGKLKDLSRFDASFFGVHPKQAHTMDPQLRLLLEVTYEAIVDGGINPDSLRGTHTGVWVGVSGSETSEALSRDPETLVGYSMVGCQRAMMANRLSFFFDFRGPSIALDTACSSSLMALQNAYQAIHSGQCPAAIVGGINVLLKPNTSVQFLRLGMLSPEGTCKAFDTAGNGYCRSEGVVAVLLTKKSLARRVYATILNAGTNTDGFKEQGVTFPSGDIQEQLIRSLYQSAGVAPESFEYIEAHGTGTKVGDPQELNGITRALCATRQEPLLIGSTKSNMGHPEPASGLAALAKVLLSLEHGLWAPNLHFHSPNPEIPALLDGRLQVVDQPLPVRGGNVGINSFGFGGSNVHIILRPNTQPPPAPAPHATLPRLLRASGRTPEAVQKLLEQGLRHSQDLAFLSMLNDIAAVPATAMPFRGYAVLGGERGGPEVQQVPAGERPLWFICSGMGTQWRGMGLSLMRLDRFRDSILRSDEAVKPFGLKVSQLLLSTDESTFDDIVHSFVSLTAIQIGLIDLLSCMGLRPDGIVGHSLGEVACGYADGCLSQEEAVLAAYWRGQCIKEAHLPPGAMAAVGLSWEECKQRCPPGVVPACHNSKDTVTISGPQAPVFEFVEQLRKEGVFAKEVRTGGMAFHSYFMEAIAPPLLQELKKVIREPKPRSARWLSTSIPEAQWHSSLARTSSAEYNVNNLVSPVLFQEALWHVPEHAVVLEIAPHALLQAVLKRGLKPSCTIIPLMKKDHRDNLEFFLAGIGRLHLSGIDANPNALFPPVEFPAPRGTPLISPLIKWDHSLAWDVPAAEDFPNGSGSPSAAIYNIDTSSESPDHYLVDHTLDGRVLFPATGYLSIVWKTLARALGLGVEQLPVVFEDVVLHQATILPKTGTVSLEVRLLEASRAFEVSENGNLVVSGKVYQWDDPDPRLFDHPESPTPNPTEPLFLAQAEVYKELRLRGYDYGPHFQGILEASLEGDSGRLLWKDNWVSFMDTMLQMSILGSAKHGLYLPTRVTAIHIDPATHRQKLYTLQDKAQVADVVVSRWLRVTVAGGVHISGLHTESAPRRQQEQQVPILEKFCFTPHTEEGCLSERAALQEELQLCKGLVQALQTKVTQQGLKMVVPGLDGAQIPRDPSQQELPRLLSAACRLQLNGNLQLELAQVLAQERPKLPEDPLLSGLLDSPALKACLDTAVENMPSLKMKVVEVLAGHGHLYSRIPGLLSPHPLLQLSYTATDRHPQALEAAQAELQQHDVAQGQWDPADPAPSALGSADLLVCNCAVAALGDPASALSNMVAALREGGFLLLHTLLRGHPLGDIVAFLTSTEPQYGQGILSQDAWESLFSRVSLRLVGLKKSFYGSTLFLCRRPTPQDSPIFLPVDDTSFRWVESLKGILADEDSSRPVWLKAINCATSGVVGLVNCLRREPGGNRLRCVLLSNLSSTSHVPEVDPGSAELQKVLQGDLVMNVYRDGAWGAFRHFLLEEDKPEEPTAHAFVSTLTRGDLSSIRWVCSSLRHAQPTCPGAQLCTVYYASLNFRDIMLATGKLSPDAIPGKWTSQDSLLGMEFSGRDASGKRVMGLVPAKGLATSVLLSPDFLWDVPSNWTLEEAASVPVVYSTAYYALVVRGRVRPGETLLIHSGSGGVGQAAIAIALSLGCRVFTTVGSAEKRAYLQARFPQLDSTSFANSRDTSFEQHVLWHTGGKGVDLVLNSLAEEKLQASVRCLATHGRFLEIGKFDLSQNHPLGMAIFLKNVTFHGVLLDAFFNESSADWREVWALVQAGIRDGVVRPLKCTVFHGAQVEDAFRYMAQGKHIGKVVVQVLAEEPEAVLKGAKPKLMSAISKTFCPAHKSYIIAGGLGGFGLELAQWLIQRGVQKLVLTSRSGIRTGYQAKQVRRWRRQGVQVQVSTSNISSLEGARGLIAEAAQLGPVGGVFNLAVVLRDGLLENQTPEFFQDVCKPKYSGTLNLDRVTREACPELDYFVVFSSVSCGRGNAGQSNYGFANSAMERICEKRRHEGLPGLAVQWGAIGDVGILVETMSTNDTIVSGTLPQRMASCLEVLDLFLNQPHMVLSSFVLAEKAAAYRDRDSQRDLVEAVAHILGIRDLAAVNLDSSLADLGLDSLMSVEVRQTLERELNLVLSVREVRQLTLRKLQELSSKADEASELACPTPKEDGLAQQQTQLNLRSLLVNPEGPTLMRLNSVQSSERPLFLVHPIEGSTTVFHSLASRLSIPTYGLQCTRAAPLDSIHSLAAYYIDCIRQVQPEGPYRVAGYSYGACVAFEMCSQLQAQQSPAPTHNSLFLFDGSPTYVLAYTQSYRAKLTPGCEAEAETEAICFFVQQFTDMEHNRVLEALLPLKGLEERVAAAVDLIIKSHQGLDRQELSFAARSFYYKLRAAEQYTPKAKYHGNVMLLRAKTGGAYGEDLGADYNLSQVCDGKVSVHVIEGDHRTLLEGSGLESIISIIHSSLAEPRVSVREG
The molecule `Cc1ccc(C(=O)N2CCC(c3ccc(C#N)cc3)CC2)cc1NS(=O)(=O)CC1(C)NC(=O)NC1=O` (stereo in doubt) [Example 147, N-[5-[4-(4-cyanophenyl)piperidine-1-carbonyl]-2-methyl-phenyl]-1-[(4R)-4-methyl-2,5-dioxo-imidazolidin-4-yl]methanesulfonamide] came in with an inhibition at 100 µM of 98%.
The figure for `C[S+]([O-])c1ccc(C(=O)N2CCC(c3ccc(C#N)cc3)CC2)cc1NS(=O)(=O)Cc1ccccc1` (stereo not shown) [Example 211, N-[5-[4-(4-cyanophenyl)piperidine-1-carbonyl]-2-methylsulfinylphenyl]-1-phenylmethanesulfonamide] is 92%; for `Cc1ccc(C(=O)N2CCC(c3ccc(C#N)cc3)CC2)cc1NS(=O)(=O)CCc1ccccc1` [Example 202, N-[5-[4-(4-cyanophenyl)piperidine-1-carbonyl]-2-methylphenyl]-2-phenylethanesulfonamide] it is 90%.
The figure for `CCS(=O)(=O)N1CCC(S(=O)(=O)Nc2cc(C(=O)N3CCC(c4ccc(C#N)cc4)CC3)ccc2C)CC1` [Example 122, N-[5-[4-(4-cyanophenyl)piperidine-1-carbonyl]-2-methyl-phenyl]-1-ethylsulfonyl-piperidine-4-sulfonamide] is 98%.

Source of the values: patent publication US20090105305A1, “Therapeutic Agents - 550” (AstraZeneca AB, priority 2006, published 2009).
